Results taken from publication PMC8683663 (International Journal of Pharmaceutics: X, 2021).
In brackets after ≈: the same amount, converted by molar mass. Like-named read-outs stand apart in the source and are kept apart here.

Key:
[1] = Bidirectional etoposide permeability across Caco-2 cell monolayers; format: in vitro ADME; conditions: human, Caco-2, pH 7.4
Caco-2 cell monolayers [2] = experiment: as above; format: in vitro ADME; conditions: in the presence of more than 79 nM zosuquidar; Caco-2
[3] = mdr1a(−/−) (P-gp) knockout rats; ref Al-Ali et al., 2018a; cited from earlier work
[4] = Etoposide solubility in ethanol-water mixtures; format: physicochemical; conditions: 22 °C, thermodynamic from solid
[5] = for precipitation upon dilution in rSIF (visual): 1:1 in rSIF; for initial zosuquidar solubility: supernatant, 37 °C
[6] = Pharmacokinetic dose escalation study in rats; format: in vivo, Sprague Dawley rats; conditions: for bioavailability: Etoposide Bioavailability; for Zosuquidar tmax: median [Q1;Q3]
[7] = ref Al-Ali et al., cited from earlier work; for oral bioavailability of etoposide: 2020
[8] = 10 mg/kg encequidar, oral; ref Smolinski et al., 2021; cited from earlier work
P-gp = experiment: In vitro-in vivo correlation of P-gp inhibition; conditions: 180 μM intestinal concentration in vivo vs. 5–10 nM in Caco-2
[9] = Zosuquidar recovery in the compartments of the Caco-2 Transwell system; format: in vitro ADME; conditions: for zosuquidar left in solution / zosuquidar recovery: 120 min, mean ± SEM, n = 24; for zosuquidar left in solution: % of added
[10] = weak base; ref Drugbank, 2021; cited from earlier work
[11] = 20 mg/kg zosuquidar IV; ref Anderson et al., 2006; cited from earlier work
Caco-2 cell monolayers [12] = experiment: Lucifer yellow permeability; format: in vitro ADME
[13] = etoposide 5 mg/kg IV, by an oral dose of 20 mg/kg zosuquidar (group B vs A)
[14] = group B: zosuquidar 20 mg/kg oral + etoposide 5 mg/kg IV, mean ± SEM, n = 6
[15] = group F: zosuquidar 0.63 mg/kg oral + etoposide 20 mg/kg oral, mean ± SEM, n = 6
[16] = group G: zosuquidar 2.0 mg/kg oral + etoposide 20 mg/kg oral, mean ± SEM, n = 6
[17] = group H: zosuquidar 6.3 mg/kg oral + etoposide 20 mg/kg oral, mean ± SEM, n = 6
[18] = group I: zosuquidar 20 mg/kg oral + etoposide 20 mg/kg oral, mean ± SEM, n = 6
[19] = group J: zosuquidar 63 mg/kg oral + etoposide 20 mg/kg oral, mean ± SEM, n = 6

COc1cc([C@@H]2c3cc4c(cc3[C@@H](O[C@@H]3O[C@@H]5CO[C@@H](C)O[C@H]5[C@H](O)[C@H]3O)[C@H]3COC(=O)[C@H]23)OCO4)cc(OC)c1O [etoposide]
recovery at 120 min, 50 µM [1]: 95 to 117% | decrease of etoposide B-A permeability (Caco-2 cell monolayers [2]): 5 fold | increase of etoposide A-B permeability (Caco-2 cell monolayers [2]): 4 fold | oral etoposide bioavailability [3]: 92% | solubility at 24 h ([4]; absolute ethanol, organic solvent or mixture): 891 ± 8 µg/mL (≈ 1510 µM) | solubility at 24 h ([4]; ethanol-water mixture): 9230 ± 420 µg/mL (≈ 15700 µM) | solubility at 24 h ([4]; water): 92.4 ± 3.4 µg/mL (≈ 157 µM) | precipitation upon dilution in rSIF (visual) ([5]; etoposide, any formulation): did not precipitate | increase of etoposide AUC0-6h [6, 13]: 34% | increase of etoposide t½ [6, 13]: 37% | Etoposide Bioavailability ([6]; group D: etoposide 20 mg/kg oral, no zosuquidar, mean ± SEM, n = 6): 5% | AUC(0-t) ([6]; male, Sprague Dawley, rat, plasma, po, 20 mg/kg, Etoposide AUC0-6h, group I: etoposide 20 mg/kg oral + zosuquidar 20 mg/kg oral, mean ± SEM, n = 6): 3530 ± 460 ng·h/mL | bioavailability ([6]; male, Sprague Dawley, rat, plasma, po, 20 mg/kg, group D: etoposide 20 mg/kg oral, no zosuquidar, mean ± SEM, n = 6): 5.5 ± 0.9% | bioavailability ([6]; male, Sprague Dawley, rat, plasma, po, 20 mg/kg, group I: etoposide 20 mg/kg oral + zosuquidar 20 mg/kg oral, mean ± SEM, n = 6): 20.5 ± 2.7% | oral bioavailability of etoposide ([7]; 20 mg/kg etoposide oral + 20 mg/kg oral zosuquidar): 34.5% | absolute etoposide bioavailability ([7]; wild-type rats, 2018a): 27 ± 5% | oral bioavailability of etoposide ([7]; without zosuquidar): 4.0%

COc1cc2c(cc1OC)CN(CCc1ccc(-n3nnc(-c4cc(OC)c(OC)cc4NC(=O)c4cc(=O)c5ccccc5o4)n3)cc1)CC2 [encequidar]
encequidar Cmax [8]: 7.1 ng/mL | encequidar bioavailability [8]: 6.25%

O[C@@H](COc1cccc2ncccc12)CN1CCN([C@@H]2c3ccccc3[C@@H]3[C@H](c4ccccc42)C3(F)F)CC1 [zosuquidar]
in vitro-in vivo discrepancy of zosuquidar P-gp inhibition (P-gp): at least four orders of magnitude | precipitation upon dilution in rSIF (visual) ([5]; 2.0 and 6.3 mg/mL zosuquidar (groups B, I, J)): precipitation was observed | initial zosuquidar solubility ([5]; formulation B (2.0 mg/mL zosuquidar) diluted 1:1 in rSIF): 450 µg/mL | dose strength being in solution ([5]; formulation B diluted 1:1 in rSIF): 44% | initial zosuquidar solubility ([5]; formulation I (2.0 mg/mL zosuquidar) diluted 1:1 in rSIF): 520 µg/mL | dose strength being in solution ([5]; formulation I diluted 1:1 in rSIF): 52% | initial zosuquidar solubility ([5]; formulation J (6.3 mg/mL zosuquidar) diluted 1:1 in rSIF): 470 µg/mL | dose strength being in solution ([5]; formulation J diluted 1:1 in rSIF): 15% | precipitation upon dilution in rSIF (visual) ([5]; lower zosuquidar concentrations): remained clear | reduction of free zosuquidar concentration in the receiver compartments ([9]; apical and basolateral, after 30 min, data not shown): 60–72% | zosuquidar left in solution ([9]; apical compartment): 1.55 ± 0.06% | zosuquidar left in solution ([9]; basolateral compartment): 7.01 ± 0.37% | zosuquidar recovery ([9]; in the Caco-2 monolayer): 58.7 ± 5.0% | zosuquidar recovery ([9]; in the cell culture plate): 31.8 ± 11.3% | predicted pKa [10]: 7.6 | zosuquidar plasma concentration ([6]; 2 h after a 5 mg/kg IV bolus): 0.13 µg/mL | Zosuquidar AUC0-6h [6, 14]: 94.2 ± 12.4 ng·h/mL | Zosuquidar Bioavailability [6, 14]: 2.81±0.37% | Zosuquidar Cmax [6, 14]: 23.7 ± 3.6 ng/mL | Zosuquidar t½ terminal [6, 14]: 2.88 ± 0.167 h | Zosuquidar tmax ([6]; group B: zosuquidar 20 mg/kg oral + etoposide 5 mg/kg IV, n = 6): 120[60;135] min | Zosuquidar AUC0-6h ([6]; group C: zosuquidar 5.0 mg/kg IV, mean ± SEM, n = 3): 830 ± 87 ng·h/mL | Zosuquidar CL ([6]; group C: zosuquidar 5.0 mg/kg IV, n = 3): 102 ± 12 mL/min/kg | Zosuquidar t½ terminal ([6]; group C: zosuquidar 5.0 mg/kg IV, two-compartment model, mean ± SEM, n = 3): 2.33 ± 0.4 h | Zosuquidar AUC0-6h [6, 15]: 4.45 ± 0.86 ng·h/mL | Zosuquidar Bioavailability [6, 15]: 4.21±0.81% | Zosuquidar Cmax [6, 15]: 1.34 ± 0.28 ng/mL | Zosuquidar t½ terminal [6, 15]: 1.37 ± 0.0917 h | Zosuquidar tmax ([6]; group F: zosuquidar 0.63 mg/kg oral + etoposide 20 mg/kg oral, n = 6): 120[101;120] min | Zosuquidar AUC0-6h [6, 16]: 8.67 ± 0.77 ng·h/mL | Zosuquidar Bioavailability [6, 16]: 2.58±0.23% | Zosuquidar Cmax [6, 16]: 2.10 ± 0.27 ng/mL | Zosuquidar t½ terminal [6, 16]: 3.62 ± 0.45 h | Zosuquidar tmax ([6]; group G: zosuquidar 2.0 mg/kg oral + etoposide 20 mg/kg oral, n = 6): 120[45;135] min | Zosuquidar AUC0-6h [6, 17]: 43.6 ± 5.4 ng·h/mL | Zosuquidar Bioavailability [6, 17]: 4.12±0.51% | Zosuquidar Cmax [6, 17]: 10.9 ± 1.2 ng/mL | Zosuquidar t½ terminal [6, 17]: 2.68 ± 0.217 h | Zosuquidar tmax ([6]; group H: zosuquidar 6.3 mg/kg oral + etoposide 20 mg/kg oral, n = 6): 90[45;120] min | Zosuquidar AUC0-6h [6, 18]: 118 ± 21 ng·h/mL | Zosuquidar Bioavailability [6, 18]: 3.52±0.62% | Zosuquidar Cmax [6, 18]: 31.3 ± 3.2 ng/mL | Zosuquidar t½ terminal [6, 18]: 3.23 ± 0.383 h | Zosuquidar AUC0-6h [6, 19]: 436 ± 91 ng·h/mL | Zosuquidar Bioavailability [6, 19]: 4.12±0.86% | Zosuquidar Cmax [6, 19]: 105 ± 21 ng/mL | Zosuquidar t½ terminal [6, 19]: 3.97 ± 0.233 h | Oral zosuquidar bioavailability ([6]; range over the oral zosuquidar doses, Sprague Dawley rats): 2.6–4.2% | tolerability of IV zosuquidar [11]: no reported issues

lucifer yellow
lucifer yellow Papp (Caco-2 cell monolayers [12]; 100 μM lucifer yellow, Caco-2, not affected by zosuquidar): below 1.1 × 10^−6 cm/s | lucifer yellow recovery (Caco-2 cell monolayers [12]; Caco-2 permeability experiments): 82–110%
